Activity calls are given as the source filed them. The calls are words filed in the database; no cut-off is given here.
Key:
[1] = target: T1, Delta-aminolevulinic acid dehydratase (Homo sapiens) (UniProt P13716); experiment: (§1) Inhibition of human ALADH after 20 mins
T1 sequence (whole entry): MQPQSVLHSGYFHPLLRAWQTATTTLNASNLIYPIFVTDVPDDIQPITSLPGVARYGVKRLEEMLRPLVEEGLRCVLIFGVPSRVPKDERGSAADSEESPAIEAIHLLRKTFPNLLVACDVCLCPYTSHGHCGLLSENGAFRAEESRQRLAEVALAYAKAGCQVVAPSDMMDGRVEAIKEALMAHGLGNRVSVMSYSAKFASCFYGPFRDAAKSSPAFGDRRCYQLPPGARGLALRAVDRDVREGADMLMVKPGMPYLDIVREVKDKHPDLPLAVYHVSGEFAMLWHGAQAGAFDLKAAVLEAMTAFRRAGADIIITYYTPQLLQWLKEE

Wolbachia [2] = experiment: (§2) Inhibition of recombinant Wolbachia endobacteria ALADH using 5-ALA as substrate after 20 mins
[3] = as §2
[4] = target: T2, Delta-aminolevulinic acid dehydratase (Homo sapiens, UniProt P13716); experiment: as §1
T2 sequence (P13716 whole entry): T1 sequence (whole entry)

Wolbachia [5] = experiment: Inhibition of recombinant Wolbachia endobacteria ALADH using 5-ALA as substrate after 20 mins relative to control
Wolbachia [6] = experiment: Binding affinity to recombinant Wolbachia endobacteria assessed as change in melting temperature at 25 uM by thermal shift assay
Wolbachia [7] = experiment: Non-competitive inhibition of recombinant Wolbachia endobacteria ALADH using 5-ALA as substrate
Wolbachia [8] = experiment: Binding affinity to recombinant Wolbachia endobacteria assessed as change in melting temperature at 12.5 uM by thermal shift assay
Wolbachia [9] = experiment: Non-competitive inhibition of recombinant Wolbachia endobacteria ALADH using 5-ALA as substrate in presence of Mg2+
Wolbachia [10] = experiment: Binding affinity to recombinant Wolbachia endobacteria assessed as change in melting temperature at 1.6 uM by thermal shift assay
Wolbachia [11] = experiment: Binding affinity to recombinant Wolbachia endobacteria assessed as change in melting temperature at 3.1 uM by thermal shift assay
Wolbachia [12] = experiment: Binding affinity to recombinant Wolbachia endobacteria assessed as change in melting temperature at 6.25 uM by thermal shift assay
Wolbachia [13] = experiment: Binding affinity to recombinant Wolbachia endobacteria assessed as change in melting temperature at 100 uM by thermal shift assay

SMILES	inhibition [1]	inhibition (Wolbachia [2])	IC50 [3]	also measured
O=C(O)c1ccc2c(c1)n(CC1CCNC1)c(=O)n2Cc1ccc(F)cc1 (stereo not given)	inactive	inactive		
Cc1ccsc1C(=O)NCCc1ccc(C(=O)O)cc1	inactive	inactive		
O=C(O)c1c2c(nc3ccccc13)CCN(S(=O)(=O)c1ccccc1)C2			Not Active	
COc1ccc(S(=O)(=O)N2CCc3nc4ccccc4c(C(=O)O)c3C2)cc1			Not Active	
Cn1c(CCNC(=O)c2cccs2)nc2cc([N+](=O)[O-])ccc21	inactive	inactive		
O=C(O)CCNC(=O)C(Cc1ccccc1)NC(=O)c1cccs1 (stereo not given)	inactive	inactive		
O=C(O)c1c2c(nc3ccccc13)CCN(CC(O)c1ccccc1)C2 (stereo not given)			Not Active	
CC(NC(=O)Cc1ccccc1C(=O)O)C1Nc2ccccc2N1 (stereo not given)	inactive	inactive		
O=C(O)c1c2c(nc3ccccc13)CCN(CC(O)COc1ccccc1)C2 (stereo not given)			Not Active	
O=C(O)c1ccc2c(c1)n(Cc1ncccn1)c(=O)n2Cc1ccc(F)cc1	> 25%			IC50 ([4]; read-out: IC50): 119 µM; IC50 ([3]; read-out: IC50): > 1000 µM
O=C(O)c1cc(-c2ccc(Cl)cc2)cs1				IC50 ([4]; read-out: IC50): 85.3 µM; IC50 ([3]; read-out: IC50): 521 µM; inhibition (Wolbachia [5]): > 30%
O=C(O)c1c2c(nc3ccccc13)CCN(C(=O)c1cccc(C(F)(F)F)c1)C2				ΔTm (Wolbachia [6]): 3 °C; inhibition (Wolbachia [7]): Active; IC50 [4]: Not Active; ΔTm (Wolbachia [8]): 2.8 °C; inhibition (Wolbachia [9]): Active; IC50 ([3]; read-out: IC50): 8.1 µM; ΔTm (Wolbachia [10]): 0.7 °C; ΔTm (Wolbachia [11]): 1.2 °C; ΔTm (Wolbachia [12]): 1.9 °C; inhibition (Wolbachia [5]): > 30%; ΔTm (Wolbachia [13]): 5.5 °C
O=C(O)c1cc(-c2ccc(Br)cc2)cs1				IC50 ([4]; read-out: IC50): 99.7 µM; IC50 ([3]; read-out: IC50): 299 µM; inhibition (Wolbachia [5]): > 30%
CN1CCc2nc3ccccc3c(C(=O)O)c2C1			Not Active	
O=C(N[C@@H](Cc1ccccc1)C(=O)O)c1cccs1	inactive	inactive		
CCn1c(CSc2ccc(NC(C)=O)cc2)nc2cc(C(=O)O)ccc21	inactive	inactive		
O=C(O)c1ccc2c(c1)n(CCN1CCCC1)c(=O)n2Cc1ccc(F)cc1	> 25%			IC50 ([4]; read-out: IC50): > 1000 µM; IC50 ([3]; read-out: IC50): 340 µM
O=C(O)c1c2c(nc3ccccc13)CCN(Cc1ccccc1)C2			Not Active	
O=C(c1cccc(C(F)(F)F)c1)N1CCc2nc3ncccc3cc2C1			Not Active	
O=C(O)c1c2c(nc3ccccc13)CCNC2			Not Active	
CCn1c(CSc2nnc(-c3cccs3)n2Cc2ccccc2)nc2cc(C(=O)O)ccc21	inactive	inactive		
O=C(O)c1ccc2c(c1)nc(CCNC(=O)c1cccs1)n2Cc1cccc(C(F)(F)F)c1				IC50 ([4]; read-out: IC50): 740 µM; IC50 ([3]; read-out: IC50): 11.1 µM
CC(C)(C)C(=O)N1CCc2nc3ccccc3c(C(=O)O)c2C1			Not Active	

From ChEMBL document CHEMBL2429725, “New chemotypes for wALADin1-like inhibitors of delta-aminolevulinic acid dehydratase from Wolbachia endobacteria” (Bioorg Med Chem Lett, 2013)
